Measured values as given in article PMC9870890 (Nature Communications, 2023).
Changes are numbered by the printed parent chain. Like-named read-outs stand apart in the source and are kept apart here.

Key:
M2R [1] = biological target: T1, M2R (Homo sapiens, UniProt P08172); assay: cell-based; conditions: for Emax: HEK-293T
T1 sequence (P08172 1-466): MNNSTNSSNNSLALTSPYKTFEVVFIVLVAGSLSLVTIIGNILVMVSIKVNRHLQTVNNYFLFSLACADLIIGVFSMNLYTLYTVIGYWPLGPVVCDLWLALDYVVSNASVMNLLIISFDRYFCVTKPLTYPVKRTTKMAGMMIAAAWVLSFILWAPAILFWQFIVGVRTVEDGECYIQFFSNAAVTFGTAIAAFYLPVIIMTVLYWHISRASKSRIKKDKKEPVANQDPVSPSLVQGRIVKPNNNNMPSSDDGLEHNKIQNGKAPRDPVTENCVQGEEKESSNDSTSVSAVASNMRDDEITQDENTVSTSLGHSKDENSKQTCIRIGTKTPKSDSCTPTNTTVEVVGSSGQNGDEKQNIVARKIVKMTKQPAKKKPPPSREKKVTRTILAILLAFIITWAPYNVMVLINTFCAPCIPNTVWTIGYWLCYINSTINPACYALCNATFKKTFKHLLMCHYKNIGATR
Procedure: Measurement of G-protein mediated activation of M2R was performed applying the IP-One HTRF® accumulation assay (Cisbio, Codolet, France) as previously described protocols[29],[73]. In brief, HEK 293T cells were co-transfected with the cDNA coding for M2R and the hybrid G-protein Gαqi (Gαq protein with the last five amino acids at the C-terminus replaced by the corresponding sequence of Gαi; gift from The J. David Gladstone Institutes, San Francisco, CA) and transferred into 384-well micro plates. […] Accumulation of second messenger was stopped by addition of the detection reagents (IP1-d2 conjugate and Anti-IP1cryptate TB conjugate). […] Normalized concentration-response curves from four to eight experiments each done in duplicates were analyzed using the algorithms for four parameter non-linear regression implemented in PRISM 8.0 (GraphPad Software, USA) to derive EC50 and Emax values.

M2R [2] = biological target: T2, M2R (Homo sapiens, UniProt P08172, M139L/M142L/M1T/M248L/M296L/M368L/M456T/M45L); format: biochemical; conditions: for Phosphorylation intensity: 100 μM Ixo or 1 mM carbachol
T2 construct: We used a full-length construct M2RFL△8 M for complexing with miniGαo and β-arrestin-1; FLAG (N); 8xHis (C); made in house; host or cells: Sf9 insect cells
T2 sequence (P08172 1-466 M1T/M45L/M139L/M142L/M248L/M296L/M368L/M456T): T1 sequence (P08172 1-466) with M1T, M45L, M139L, M142L, M248L, M296L, M368L, M456T
Procedure: We used a full-length construct M2RFL△8 M for complexing with miniGαo and β-arrestin-1. The receptor was purified as described above for cryo-EM sample. Excess GRK2 was mixed with the M2R in a buffer composed of 20 mM HEPES pH 7.5, 100 mM NaCl, 0.01% MNG, 0.003% CHS, 500 μM ATP in the presence and absence of 100 μM Ixo or 1 mM carbachol to initiate the phosphorylation at room temperature. The extent of phosphorylation at various time points (from 0 to 120 min) was evaluated by Pro-Q and Coomassie blue staining. The final phosphorylated receptor (Ixo-bound) was further evaluated by ion-exchange chromatography. The complex formation test was performed as follows: unphosphorylated Ixo-bound M2RFL△8 M or phosphorylated M2RFL△8 M was mixed with miniGαo or β-arrestin-1, respectively and incubated on ice for 30 min. The receptor alone or mixed complex sample were then analyzed by SEC against 20 mM HEPES pH 7.5, 100 mM NaCl, 0.01% MNG, 0.003% CHS in the presence of 10 μM Ixo.

## C[N+](C)(C)CC#CCOC1=NOCC1 [Ixo, iperoxo]
M2R [1]
  EC50: 0.31 ± 0.043 nM
M2R [1]; read-out: Emax in % of acetylcholin, IP accumulation by iperoxo, agonist (absence of LY2119620)
  Emax: 115%
M2R [1]; read-out: Emax in % of acetylcholin, IP accumulation by iperoxo, agonist + 0.1 µM LY
  Emax: 111%
M2R [1]; read-out: Emax in % of acetylcholin, IP accumulation by iperoxo, agonist + 1 µM LY
  Emax: 105%
M2R [1]; read-out: Emax in % of acetylcholin, IP accumulation by iperoxo, agonist + 3 µM LY
  Emax: 104%
M2R [1]; read-out: Emax in % of acetylcholin, IP accumulation by iperoxo, agonist + 10 µM LY
  Emax: 104%
M2R [1]; read-out: Emax in % of acetylcholin, IP accumulation by iperoxo, agonist + 100 µM LY
  Emax: 102%
M2R [1]; read-out: IP accumulation as % max effect of acetylcholin, iperoxo log [M] 3-8, 1µM LY2119620
  Emax: 103%
M2R [1]; read-out: IP accumulation as % max effect of acetylcholin, iperoxo log [M] 3-8, 3µM LY2119620
  Emax: 102%
M2R [1]; read-out: IP accumulation as % max effect of acetylcholin, iperoxo log [M] 3-8, 10µM LY2119620
  Emax: 99.3%
M2R [1]; read-out: IP accumulation as % max effect of acetylcholin, iperoxo log [M] 3-8, 100µM LY2119620
  Emax: 98.3%
M2R [1]; read-out: IP accumulation as % max effect of acetylcholin, iperoxo log [M] 3-8, no LY2119620
  Emax: 111%
M2R [1]; read-out: IP accumulation as % max effect of acetylcholin, iperoxo log [M] 3-9, 0.1µM LY2119620
  Emax: 122%
M2R [1]; read-out: IP accumulation as % max effect of acetylcholin, iperoxo log [M] 3-9, 1µM LY2119620
  Emax: 104%
M2R [1]; read-out: IP accumulation as % max effect of acetylcholin, iperoxo log [M] 3-9, 3µM LY2119620
  Emax: 106%
M2R [1]; read-out: IP accumulation as % max effect of acetylcholin, iperoxo log [M] 3-9, 10µM LY2119620
  Emax: 98.3%
M2R [1]; read-out: IP accumulation as % max effect of acetylcholin, iperoxo log [M] 3-9, 30µM LY2119620
  Emax: 87.5%
M2R [1]; read-out: IP accumulation as % max effect of acetylcholin, iperoxo log [M] 3-9, 100µM LY2119620
  Emax: 106%
M2R [1]; read-out: IP accumulation as % max effect of acetylcholin, iperoxo log [M] 3-9, no LY2119620
  Emax: 113%
M2R [1]; read-out: IP accumulation as % max effect of acetylcholin, iperoxo log [M] 3-10, 0.1µM LY2119620
  Emax: 85.3%
M2R [1]; read-out: IP accumulation as % max effect of acetylcholin, iperoxo log [M] 3-10, 1µM LY2119620
  Emax: 100%
M2R [1]; read-out: IP accumulation as % max effect of acetylcholin, iperoxo log [M] 3-10, 3µM LY2119620
  Emax: 104%
M2R [1]; read-out: IP accumulation as % max effect of acetylcholin, iperoxo log [M] 3-10, 10µM LY2119620
  Emax: 106%
M2R [1]; read-out: IP accumulation as % max effect of acetylcholin, iperoxo log [M] 3-10, 100µM LY2119620
  Emax: 104%
M2R [1]; read-out: IP accumulation as % max effect of acetylcholin, iperoxo log [M] 3-11, 0.1µM LY2119620
  Emax: 26.4%
M2R [1]; read-out: IP accumulation as % max effect of acetylcholin, iperoxo log [M] 3-11, 10µM LY2119620
  Emax: 94.8%
M2R [1]; read-out: IP accumulation as % max effect of acetylcholin, iperoxo log [M] 3-12, 0.1µM LY2119620
  Emax: 12.3%
M2R [1]; read-out: IP accumulation as % max effect of acetylcholin, iperoxo log [M] 3-12, 1µM LY2119620
  Emax: 35.6%
M2R [1]; read-out: IP accumulation as % max effect of acetylcholin, iperoxo log [M] 3-12, 100µM LY2119620
  Emax: 80.3%
M2R [1]; read-out: IP accumulation as % max effect of acetylcholin, iperoxo log [M] -6, 0.1µM LY2119620
  Emax: 108%
M2R [1]; read-out: IP accumulation as % max effect of acetylcholin, iperoxo log [M] -6, 1µM LY2119620
  Emax: 101%
M2R [1]; read-out: IP accumulation as % max effect of acetylcholin, iperoxo log [M] -6, 3µM LY2119620
  Emax: 101%
M2R [1]; read-out: IP accumulation as % max effect of acetylcholin, iperoxo log [M] -6, 10µM LY2119620
  Emax: 104%
M2R [1]; read-out: IP accumulation as % max effect of acetylcholin, iperoxo log [M] -6, 30µM LY2119620
  Emax: 97%
M2R [1]; read-out: IP accumulation as % max effect of acetylcholin, iperoxo log [M] -6, 100µM LY2119620
  Emax: 104%
M2R [1]; read-out: IP accumulation as % max effect of acetylcholin, iperoxo log [M] -6, no LY2119620
  Emax: 102%
M2R [1]; read-out: IP accumulation as % max effect of acetylcholin, iperoxo log [M] -7, 0.1µM LY2119620
  Emax: 104%
M2R [1]; read-out: IP accumulation as % max effect of acetylcholin, iperoxo log [M] -7, 1µM LY2119620
  Emax: 104%
M2R [1]; read-out: IP accumulation as % max effect of acetylcholin, iperoxo log [M] -7, 3µM LY2119620
  Emax: 98.3%
M2R [1]; read-out: IP accumulation as % max effect of acetylcholin, iperoxo log [M] -7, 10µM LY2119620
  Emax: 101%
M2R [1]; read-out: IP accumulation as % max effect of acetylcholin, iperoxo log [M] -7, 100µM LY2119620
  Emax: 102%
M2R [1]; read-out: IP accumulation as % max effect of acetylcholin, iperoxo log [M] -7, no LY2119620
  Emax: 107%
M2R [1]; read-out: IP accumulation as % max effect of acetylcholin, iperoxo log [M] -8, 0.1µM LY2119620
  Emax: 113%
M2R [1]; read-out: IP accumulation as % max effect of acetylcholin, iperoxo log [M] -8, 3µM LY2119620
  Emax: 106%
M2R [1]; read-out: IP accumulation as % max effect of acetylcholin, iperoxo log [M] -8, 10µM LY2119620
  Emax: 102%
M2R [1]; read-out: IP accumulation as % max effect of acetylcholin, iperoxo log [M] -8, no LY2119620
  Emax: 112%
M2R [1]; read-out: IP accumulation as % max effect of acetylcholin, iperoxo log [M] -9, 1µM LY2119620
  Emax: 108%
M2R [1]; read-out: IP accumulation as % max effect of acetylcholin, iperoxo log [M] -9, 10µM LY2119620
  Emax: 106%
M2R [1]; read-out: IP accumulation as % max effect of acetylcholin, iperoxo log [M] -9, 100µM LY2119620
  Emax: 108%
M2R [1]; read-out: IP accumulation as % max effect of acetylcholin, iperoxo log [M] -10, 3µM LY2119620
  Emax: 100%
M2R [1]; read-out: IP accumulation as % max effect of acetylcholin, iperoxo log [M] -10, 10µM LY2119620
  Emax: 101%
M2R [1]; read-out: IP accumulation as % max effect of acetylcholin, iperoxo log [M] -12, 100µM LY2119620
  Emax: 94.6%
M2R [1]; read-out: IP accumulation as % max effect of acetylcholin, iperoxo log [M] -14, 0.1µM LY2119620
  Emax: 18.7%
M2R [1]; read-out: IP accumulation as % max effect of acetylcholin, iperoxo log [M] -14, 30µM LY2119620
  Emax: 79.3%
M2R [1]; read-out: IP accumulation as % max effect of acetylcholin, iperoxo log [M] -14, 100µM LY2119620
  Emax: 78.3%
M2R [2]; Time 5 min
  Phosphorylation intensity: 4552.74
M2R [2]; Time 10 min
  Phosphorylation intensity: 10530.1
M2R [2]; Time 15 min
  Phosphorylation intensity: 15003.3
M2R [2]; Time 30 min
  Phosphorylation intensity: 17454.3
M2R [2]; Time 60 min
  Phosphorylation intensity: 18635.2
M2R [2]; Time 120 min
  Phosphorylation intensity: 18093.2
M2R [2]; compared with carbachol
  induction of GRK2-mediated phosphorylation of M2R: more efficient than carbachol
